Laboratory results reported in paper PMC7435657, “[^99mTc]Tc-DB1 Mimics with Different-Length PEG Spacers: Preclinical Comparison in GRPR-Positive Models” (Molecules, 2020).

Experiments:
human GRPR = human GRPR (Homo sapiens, UniProt P30550); experiment: biochemical
Procedure: Competition binding assays for DB7, DB13 and DB14 were performed in PC-3 cell membranes.
Competition binding experiments of DB7, […] against [^125 I][I-Tyr^4]BBN were conducted in PC-3 cell membranes. Increasing concentrations of tested peptide (10^−13–10^−5 M) were mixed with the radioligand (40,000 cpm per assay tube, at a 50 pM concentration) and the membrane homogenate in a total volume of 300 μL binding buffer (pH 7.4, 50 mM HEPES, 1% BSA, 5.5 mM MgCl2, 35 μM bacitracin). Triplicates of each concentration point were incubated for 60 min at 22 °C in an Incubator-Orbital Shaker unit (MPM Instr. SrI, Bernareggio, MI, Italy). The incubation was interrupted by adding ice-cold washing buffer (10 mM HEPES pH 7.4, 150 mM NaCl), followed by rapid filtration over glass fiber filters (Whatman GF/B, presoaked in binding buffer) on a Brandel Cell Harvester (Adi Hassel Ingenieur Büro, Munich, Germany). Filters were washed with cold washing buffer and were counted for their radioactivity content in an automated well-type gamma counter [NaI(Tl) 3″ crystal, Canberra Packard Cobra Quantum series instrument]. The 50% inhibitory concentration (IC50) values were calculated by nonlinear regression according to a one-site model applying the PRISM 6 program (Graph Pad Software, San Diego, CA, USA) and are expressed as mean ± SD of three experiments performed in triplicate.

PC-3 cells = experiment: Radiotracer uptake (internalized + membrane bound) in PC-3 cells; type: cell-based, human; details: 1 h incubation at 37 °C, % of total added radioactivity, mean ± SD of 3 experiments
Procedure: The uptake of [^99mTc]Tc-DB7, [^99mTc]Tc-DB13, and [^99mTc]Tc-DB14 in PC-3 cells is compared in Figure 3. In all cases, the bulk of radioactivity was found on the membrane of PC-3 cells with only a small portion detected within the cells, consistent with a noninternalizing radioantagonist profile.
Figure 3 Specific uptake of [^99mTc]Tc-DB7 (pink bars), [^99mTc]Tc-DB13 (violet bars) and [^99mTc]Tc-DB14 (gray bars) in PC-3 cells after 1 h incubation at 37 °C (checkered bars: internalized, solid bars: membrane bound fractions); results represent the mean ± SD of 3 experiments performed in triplicate.
For internalization assays with [^99mTc]Tc-DB7, [^99mTc]Tc-DB13, and [^99mTc]Tc-DB14, PC-3 cells were seeded in six well plates (≈1 × 10^6 cells per well) 24 h before the experiment. […] Nonspecific internalization was determined by a parallel triplicate series containing 1 μM [Tyr^4]BBN. […] Sample radioactivity was measured on the gamma counter and the percentage, of specific internalized and membrane-bound fractions were calculated with Microsoft Excel (after subtracting nonspecific from overall internalized and membrane-bound counts). Results represent specific internalized ± SD of total added radioactivity per well from three experiments performed in triplicate.

Sequence of human GRPR (P30550 whole entry): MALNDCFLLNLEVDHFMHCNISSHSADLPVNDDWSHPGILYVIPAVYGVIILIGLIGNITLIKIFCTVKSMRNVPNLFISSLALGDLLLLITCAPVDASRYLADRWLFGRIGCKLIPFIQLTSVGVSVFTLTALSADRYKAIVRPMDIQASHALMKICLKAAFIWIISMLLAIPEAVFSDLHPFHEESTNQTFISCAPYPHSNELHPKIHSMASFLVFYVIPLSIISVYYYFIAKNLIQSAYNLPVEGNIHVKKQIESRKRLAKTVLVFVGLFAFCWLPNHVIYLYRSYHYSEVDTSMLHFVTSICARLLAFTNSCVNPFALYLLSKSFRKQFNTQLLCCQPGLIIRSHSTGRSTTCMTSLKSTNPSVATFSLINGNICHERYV

| Compound | IC50 (human GRPR) | Specific cell uptake (PC-3 cells) |
| --- | --- | --- |
| CCNC(=O)[C@H](CC(C)C)NC(=O)[C@H](Cc1c[nH]cn1)NC(=O)CNC(=O)[C@@H](NC(=O)[C@H](C)NC(=O)[C@H](Cc1c[nH]c2ccccc12)NC(=O)[C@H](CCC(N)=O)NC(=O)[C@@H](Cc1ccccc1)NC(=O)COCCOCCNC(=O)C(CNCCN)CNCCN)C(C)C [DB7, [N4-PEGx-DPhe^6,Leu-NHEt^13]BBN(6-13)] | 0.93 ± 0.01 nM | – |
| CCNC(=O)[C@H](CC(C)C)NC(=O)[C@H](Cc1c[nH]cn1)NC(=O)CNC(=O)[C@@H](NC(=O)[C@H](C)NC(=O)[C@H](Cc1c[nH]c2ccccc12)NC(=O)[C@H](CCC(N)=O)NC(=O)[C@@H](Cc1ccccc1)NC(=O)CCOCCOCCOCCNC(=O)C(CNCCN)CNCCN)C(C)C [DB13, [N4-PEGx-DPhe^6,Leu-NHEt^13]BBN(6-13)] | 1.03 ± 0.01 nM | – |
| CCNC(=O)[C@H](CC(C)C)NC(=O)[C@H](Cc1c[nH]cn1)NC(=O)CNC(=O)[C@@H](NC(=O)[C@H](C)NC(=O)[C@H](Cc1c[nH]c2ccccc12)NC(=O)[C@H](CCC(N)=O)NC(=O)[C@@H](Cc1ccccc1)NC(=O)CCOCCOCCOCCOCCNC(=O)C(CNCCN)CNCCN)C(C)C [DB14, [N4-PEGx-DPhe^6,Leu-NHEt^13]BBN(6-13)] | 1.18 ± 0.09 nM | – |
| [^99mTc]Tc-[N4-PEGx-DPhe^6,Leu-NHEt^13]BBN(6-13) [[^99mTc]Tc-DB7] | – | 2.6 ± 0.5% |
